{
  "source": "patent US20060111385A1",
  "about": "“Novel 4-phenyl substituted tetrahydroisoquinolines and therapeutic use thereof” (priority 2004, published 2006)",
  "note": "Structures can show the parent of a compound that is named as a salt.",
  "data": [
    {"test_system": "not given", "details": "not given", "units": {"melting point": "°C"}, "values": [
      {"smiles": "CN1Cc2c(ccc3ccoc23)C(c2ccc(F)cc2)C1", "note": "(stereo not shown) (as salt: hydrochloride)", "melting point": "242 to 257"},
      {"smiles": "CN1Cc2c(ccc3ccoc23)C(c2cc(F)cc(F)c2)C1", "note": "(stereo not shown) (as salt: hydrochloride)", "melting point": "233 to 236"},
      {"smiles": "CN1Cc2c(ccc3ccoc23)C(c2ccccc2)C1", "note": "(single isomer, unassigned)", "melting point": "81 to 83"},
      {"smiles": "Cc1ccc(C2CN(C)Cc3c2ccc2ccoc32)cc1", "note": "(single isomer, unassigned) (as salt: hydrochloride)", "melting point": "240 to 246"},
      {"smiles": "CN1Cc2c(ccc3ccoc23)C(c2ccccc2)C1", "note": "(single isomer, unassigned) (as salt: maleate)", "melting point": "165 to 168"},
      {"smiles": "Cc1ccc(C2CN(C)Cc3c2ccc2ccoc32)cc1", "note": "(single isomer, unassigned) (as salt: maleate)", "melting point": "190 to 191"}
    ]},
    {"test_system": "dopamine transporter protein over the norepinephrine transporter protein", "details": "selectivity for dopamine transporter protein over norepinephrine transporter protein; cited from earlier work", "values": [
      {"smiles": "COC(=O)C(c1ccccc1)C1CCCCN1", "note": "(stereo not shown) [Methylphenidate, methylphenidate]", "DAT/NET Ki ratio": 0.1}
    ]}
  ]
}
